Reference: patent US20180064726A1, “Deuterium-Substituted Oxazepin Compounds” (Auspex Pharmaceuticals, Inc., priority 2016, published 2018)

Columns and labels:
[1] = tested on: patients with QT-3 (LQT3) syndrome; settings: cited from earlier work
[2] = In vitro human liver microsomal stability assay; assay type: in vitro ADME; settings: human liver microsomes 0.5 mg per mL protein, NADPH-generating system, 1 μM test compound, 37±1° C., 0-60 min; for half-life at 1 μM: degradation half-life; for CLint scaled at 1 μM: read-out: Clearance %
Method: In Vitro Liver Microsomal Stability Assay
Human liver microsomal stability assays were conducted at 0.5 mg per mL liver microsome protein with an NADPH-generating system consisting of NADP (1 mM, pH 7.4), […] (5 mM, pH 7.4), and glucose-6-phosphate dehydrogenase (1 unit/mL).
Test compounds were prepared as solutions in DMSO and added to the assay mixture (1 μM, final concentration in incubation) to be incubated at 37±1° C. Reactions were initiated with the addition of cofactor and were stopped at 0, 15, 30, 45, and 60 min after cofactor addition with stop reagent (0.2 mL acetonitrile). Samples were centrifuged (920×g for 10 min at 10° C.) in 96-well plates. Supernatant fractions were analyzed by LC-MS/MS to determine the percent remaining and estimate the degradation half-life of the test compounds.

| Compound | half-life at 1 μM [2] [h] | CLint scaled at 1 μM [2] [mL/min/kg] | effect on QTc interval [1] |
| --- | --- | --- | --- |
| 4-(pyrimidin-2-ylmethyl)-7-[4-(trifluoromethoxy)phenyl]-2,3,4,5-tetrahydro-1,4-benzoxazepin-5-one [Example 1] |  |  | shortening of the QTc interval |
| [2H]C([2H])(c1ncccn1)N1CCOc2ccc(-c3ccc(OC(F)(F)F)cc3)cc2C1=O [Example 2, 4-(pyrimidin-2-ylmethyl-d2)-7-(4-(trifluoromethoxy)phenyl)-3,4-dihydrobenzo[f][1,4]oxazepin-5(2H)-one] | 9.52 | 3.04 |  |
| [2H]C1([2H])CN(Cc2ncccn2)C(=O)c2cc(-c3ccc(OC(F)(F)F)cc3)ccc2O1 [Example 3, 4-(pyrimidin-2-ylmethyl)-7-[4-(trifluoromethoxy)phenyl]-2,3,4,5-tetrahydro(2,2-d2)-1,4-benzoxazepin-5-one] | 4.62 | 6.27 |  |
| [2H]C1([2H])Oc2ccc(-c3ccc(OC(F)(F)F)cc3)cc2C(=O)N(Cc2ncccn2)C1([2H])[2H] [Example 5, 4-(pyrimidin-2-ylmethyl)-7-[4-(trifluoromethoxy)phenyl]-2,3,4,5-tetrahydro(2,2,3,3-d4)-1,4-benzoxazepin-5-one] | 1.35 | 21.5 |  |
| [2H]C([2H])(c1ncccn1)N1C(=O)c2cc(-c3ccc(OC(F)(F)F)cc3)ccc2OC([2H])([2H])C1([2H])[2H] [Example 6, 4-[pyrimidin-2-yl(d2)methyl]-7-[4-(trifluoromethoxy)phenyl]-2,3,4,5-tetrahydro(2,2,3,3-d4)-1,4-benzoxazepin-5-one] | 1.51 | 19.2 |  |

Now from value to compound, other results behind:

| half-life at 1 μM [2] [h] | CLint scaled at 1 μM [2] [mL/min/kg] | Compound | effect on QTc interval [1] |
| --- | --- | --- | --- |
| 2.36 | 12.3 | O=C1c2cc(-c3ccc(OC(F)(F)F)cc3)ccc2OCCN1Cc1ncccn1 [Example 1, 4-(pyrimidin-2-ylmethyl)-7-[4-(trifluoromethoxy)phenyl]-2,3,4,5-tetrahydro-1,4-benzoxazepin-5-one, reference compound] |  |
| 2.01 | 14.4 | [2H]C1([2H])COc2ccc(-c3ccc(OC(F)(F)F)cc3)cc2C(=O)N1Cc1ncccn1 [Example 4, 4-(pyrimidin-2-ylmethyl)-7-(4-(trifluoromethoxy)phenyl)-3,4-dihydrobenzo[f][1,4]oxazepin-5(2H)-one-3,3-d2] |  |
| 2.32 | 12.5 | [2H]c1c(-c2ccc(OC(F)(F)F)cc2)cc2c(c1[2H])OCCN(Cc1ncccn1)C2=O [Example 7, 4-(pyrimidin-2-ylmethyl)-7-[4-(trifluoromethoxy)phenyl]-2,3,4,5-tetrahydro(8,9-d2)-1,4-benzoxazepin-5-one] |  |
